These are literature values, as cited in patent US20210022978A1, “BUMETANIDE DERIVATIVES FOR THE THERAPY OF HYPERHIDROSIS” (ZILENTIN AG, priority 2018, published 2021).

For one data set, the system named is conditioned anxiety. Conditions: rats, compared with the vehicle alone.
The next data set has as its target T1, NKCC in sweat glands (Homo sapiens, UniProt P55011).
T1 construct: host or cells: sweat glands (in vivo)
T1 sequence (P55011 1-1212): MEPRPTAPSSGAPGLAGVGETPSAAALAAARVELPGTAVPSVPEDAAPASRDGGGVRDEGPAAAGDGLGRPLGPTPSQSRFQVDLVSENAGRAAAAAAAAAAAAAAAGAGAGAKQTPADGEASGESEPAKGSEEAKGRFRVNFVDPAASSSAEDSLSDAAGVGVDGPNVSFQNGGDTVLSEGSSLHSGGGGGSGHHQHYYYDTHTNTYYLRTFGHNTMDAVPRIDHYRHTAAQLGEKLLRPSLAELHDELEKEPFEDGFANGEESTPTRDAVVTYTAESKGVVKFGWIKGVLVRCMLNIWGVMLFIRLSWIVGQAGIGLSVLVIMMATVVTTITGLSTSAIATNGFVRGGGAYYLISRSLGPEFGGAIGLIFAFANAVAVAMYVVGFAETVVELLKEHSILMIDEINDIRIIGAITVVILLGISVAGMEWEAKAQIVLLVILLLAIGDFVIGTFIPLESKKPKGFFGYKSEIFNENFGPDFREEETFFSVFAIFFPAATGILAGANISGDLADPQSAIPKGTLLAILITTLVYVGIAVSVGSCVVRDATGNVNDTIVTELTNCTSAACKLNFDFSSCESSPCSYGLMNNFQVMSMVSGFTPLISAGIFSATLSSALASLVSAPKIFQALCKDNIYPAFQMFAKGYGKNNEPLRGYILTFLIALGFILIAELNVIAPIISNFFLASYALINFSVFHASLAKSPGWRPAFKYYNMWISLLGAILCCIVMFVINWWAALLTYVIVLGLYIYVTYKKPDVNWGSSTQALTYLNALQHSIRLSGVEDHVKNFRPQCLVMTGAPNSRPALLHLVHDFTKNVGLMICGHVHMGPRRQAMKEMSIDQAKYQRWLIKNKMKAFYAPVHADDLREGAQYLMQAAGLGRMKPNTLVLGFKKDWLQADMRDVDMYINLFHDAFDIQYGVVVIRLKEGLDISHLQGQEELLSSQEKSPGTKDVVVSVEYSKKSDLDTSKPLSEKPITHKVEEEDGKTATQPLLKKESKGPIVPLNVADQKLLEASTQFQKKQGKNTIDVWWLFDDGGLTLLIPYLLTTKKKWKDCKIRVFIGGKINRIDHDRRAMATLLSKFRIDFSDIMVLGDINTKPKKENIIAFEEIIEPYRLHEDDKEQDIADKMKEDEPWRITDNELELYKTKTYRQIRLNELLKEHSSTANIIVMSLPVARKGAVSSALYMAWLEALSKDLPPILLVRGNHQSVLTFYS

As for `CCCCNc1cc(C(=O)O)cc(S(N)(=O)=O)c1Oc1ccccc1` [bumetanide, 3-(butylamino)-4-phenoxy-5-sulfamoylbenzoic acid], the “percentage of test period freezing” value in the data set with conditioned anxiety was “significantly smaller percentage of test period freezing”. The “effectiveness in treating hyperhidrosis” value at NKCC in sweat glands was “partly effective”. For the compound `NS(=O)(=O)c1cc(C(=O)O)c(NCc2ccco2)cc1Cl` [furosemide], the “inhibition of rAceMIF tautomerase activity” value with rAceMIF is on record as “submicromolar”.
